T1: MmeI (Methylophilus methylotrophus, UniProt B2MU09)
T1 construct: gene mmeIRM; residues 156-906 modelled, endonuclease domain 1-155 disordered; purified as described previously
T1 sequence (B2MU09 1-919): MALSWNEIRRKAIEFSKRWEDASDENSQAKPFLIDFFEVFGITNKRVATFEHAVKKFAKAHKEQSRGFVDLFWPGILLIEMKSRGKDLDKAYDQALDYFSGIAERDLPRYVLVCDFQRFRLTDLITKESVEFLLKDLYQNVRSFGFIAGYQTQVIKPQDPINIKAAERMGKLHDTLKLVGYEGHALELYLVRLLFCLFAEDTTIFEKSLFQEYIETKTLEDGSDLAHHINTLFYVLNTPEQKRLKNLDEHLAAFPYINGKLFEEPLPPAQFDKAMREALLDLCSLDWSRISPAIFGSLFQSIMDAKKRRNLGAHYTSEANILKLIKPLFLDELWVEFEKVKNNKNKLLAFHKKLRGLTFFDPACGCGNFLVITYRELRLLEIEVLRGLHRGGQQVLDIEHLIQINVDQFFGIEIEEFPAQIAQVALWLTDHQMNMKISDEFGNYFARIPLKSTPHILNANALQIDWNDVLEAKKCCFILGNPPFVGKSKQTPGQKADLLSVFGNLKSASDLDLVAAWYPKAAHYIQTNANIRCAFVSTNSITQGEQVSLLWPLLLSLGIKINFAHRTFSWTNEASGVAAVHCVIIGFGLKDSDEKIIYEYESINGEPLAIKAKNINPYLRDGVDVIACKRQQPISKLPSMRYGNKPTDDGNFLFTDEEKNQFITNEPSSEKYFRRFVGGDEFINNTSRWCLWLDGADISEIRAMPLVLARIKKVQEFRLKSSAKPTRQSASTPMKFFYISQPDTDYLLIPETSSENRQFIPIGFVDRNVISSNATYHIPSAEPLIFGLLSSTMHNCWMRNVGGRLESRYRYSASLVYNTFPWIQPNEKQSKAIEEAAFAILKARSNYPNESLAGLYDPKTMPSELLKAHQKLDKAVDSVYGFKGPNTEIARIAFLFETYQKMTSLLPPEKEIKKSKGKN

T2: MmeI (Methylophilus methylotrophus, UniProt B2MU09 1-919)
T2 sequence: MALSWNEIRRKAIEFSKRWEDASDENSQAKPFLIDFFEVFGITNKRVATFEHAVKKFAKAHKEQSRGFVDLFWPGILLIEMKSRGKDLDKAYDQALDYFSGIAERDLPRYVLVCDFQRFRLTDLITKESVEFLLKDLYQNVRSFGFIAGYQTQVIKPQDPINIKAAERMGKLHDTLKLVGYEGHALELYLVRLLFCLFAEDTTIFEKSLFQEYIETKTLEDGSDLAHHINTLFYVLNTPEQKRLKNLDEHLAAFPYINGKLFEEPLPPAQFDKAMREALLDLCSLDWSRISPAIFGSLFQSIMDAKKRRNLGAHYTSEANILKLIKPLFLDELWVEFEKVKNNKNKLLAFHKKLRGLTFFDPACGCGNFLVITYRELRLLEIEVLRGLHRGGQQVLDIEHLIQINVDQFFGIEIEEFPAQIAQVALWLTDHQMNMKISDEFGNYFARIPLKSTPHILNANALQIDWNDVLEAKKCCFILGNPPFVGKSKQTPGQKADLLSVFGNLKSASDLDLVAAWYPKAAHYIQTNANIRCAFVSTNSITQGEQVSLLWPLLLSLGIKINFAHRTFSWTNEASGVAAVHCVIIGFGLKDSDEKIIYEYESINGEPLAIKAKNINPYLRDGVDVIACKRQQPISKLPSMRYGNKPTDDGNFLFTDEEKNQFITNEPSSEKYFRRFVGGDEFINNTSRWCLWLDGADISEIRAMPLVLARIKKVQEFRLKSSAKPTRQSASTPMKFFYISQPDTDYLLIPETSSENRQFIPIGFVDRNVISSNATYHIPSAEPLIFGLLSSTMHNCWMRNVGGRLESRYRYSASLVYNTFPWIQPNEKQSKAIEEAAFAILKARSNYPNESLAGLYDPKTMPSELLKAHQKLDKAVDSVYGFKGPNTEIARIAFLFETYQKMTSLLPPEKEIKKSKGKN


Assays:
MmeI [1] = biological target: T1, MmeI; assay: X-ray crystal structure, […] Å (SAD); assay type: binding; settings: ternary complex with 29-mer DNA containing TCCGAC; AdoMet site of methyltransferase domain; pH 7.5, 293 K; calcium ions in model
MmeI [2] = biological target: T2, MmeI; assay: X-ray crystallography (2.6 A); Sinefungin; Ca2+ in model; Crystallization: 20% PEG 4K, 0.1 M Hepes pH 7.5, 0.1 M (NH4)2SO4, 293 K, with Sinefungin; no solution binding assay; settings: protein: recombinant; blunt

Molecule	X-ray crystal structure, 2.6 Å (SAD) (MmeI [1])	binding result (MmeI [2])
Nc1ncnc2c1ncn2[C@@H]1O[C@H](C[C@@H](N)CC[C@H](N)C(=O)O)[C@@H](O)[C@H]1O [Sinefungin]	The SAM analog Sinefungin is tightly bound within the MTase domain via extensive hydrogen bonding	
29-mer MmeI site duplex, 5-bromouracil substituted (dsDNA, U = 5-bromouracil (replaces several thymines outside the recognition site) in both strands) DNA 1: TATCCGACAUAACGCUAGUCACUAGCUUC DNA 2: GAAGCUAGUGACUAGCGUTAUGTCGGATA		binds

Source: paper PMC4833311, “Structure of Type IIL Restriction-Modification Enzyme MmeI in Complex with DNA Has Implications for Engineering New Specificities” (PLoS Biology, 2016)
